Results on four compounds are retold here after US20060217405A1, “Interstitial cystitis treatment” (Indevus Pharmaceuticals, Inc., priority 2005, published 2006).

Data set [1] deals with interstitial cystitis patients. The settings on record: bladder instillation; cited from earlier work.
The subject of data set [2] is animals. Particulars: animal studies; cited from earlier work.
Data set [3] deals with bladder afferent nerves. The data set is described as follows: Intravesical trospium and carbachol experiments. In kind it is in vivo. The settings on record: for direct effect on interstitial cystitis: trospium at low dose. An excerpt: The action of trospium is unique because it has selective activity on the bladder urothelium and bladder afferent nerves. The local trospium bladder effect is on the afferent nerve rather than bladder smooth muscle. The effect of intravesical administered trospium was not blocked by pre treatment of capsaicin or resiniferatoxin. This indicates the afferent nerve effect is that of A-delta and not C-fibers.

Data set [4] deals with human subject. The data set is described as follows: Intravesical instillation of trospium chloride in human female subjects. Format: in vivo. Particulars: 0.5 mcg/ml twice daily intravesical. The procedure: A human subject, and weighing approximately 70 kg, presents with a sense of urgency and frequency to urinate, although they are not incontinent. The subject experiences pain and other pelvic discomfort, however, while attempting to urinate. Trospium chloride at a concentration of 0.5 mcg/ml is administered twice daily by intravesical instillation to the subject for a total dose of 2.0 mg trospium chloride per day. The dosing regimen is continued for six (6) weeks.
A human subject, and weighing approximately 60 kg, presents with incontinence. Trospium chloride at a concentration of 0.5 mcg/ml is administered twice daily by intravesical instillation to the subject for a total dose of 1.6 mg trospium chloride per day. The dosing regimen is continued for eight (8) months.

For data set [5] the following is noted: cited from earlier work.
The subject of data set [6] is female SD rats. The data set is described as follows: Cystometrogram (CMG) in anesthetized rats after intravesical instillation. In kind it is in vivo, rat. Particulars: 0.5 mcg/ml, approx. 5 ml intravesical, 10-30 minutes, urethane anesthesia. The procedure:
Baseline cystometrogram (CMG) is measured in a group of 6 female SD rats (250 grams). The rats are anesthetized utilizing urethane anesthesia at a rate of 1.2 g/kg. Trospium chloride at a concentration of 0.5 mcg/ml is administered by intravesical instillation. Approximately, 5 ml are instilled. The trospium solution is maintained in the rat bladder for a period of 10-30 minutes. At the end of that period the solution is expelled and the CMG measured.

Data set [7] concerns patients. In words: Intravesicular instillation of trospium chloride in patients. Format: in vivo, human. The text has this: Trospium chloride is a quaternary ammonium compound that concentrates in the urine primarily unchanged and is believed to have local antispasmodic activity. […] Therefore the use of trospium, especially by intravesicular instillation, is a novel treatment for interstitial cystitis with the very low potential for systemic side effects.

For data set [8], the system named is interstitial cystitis patients. Particulars: cited from earlier work.

On to `C[S+](C)[O-]` [DMSO, dimethyl sulfoxide], for which, in data set [1], the “average duration of significant pain relief” value is recorded as “about 10 months”; the “duration of garlic-like taste and odor on the breath and skin after treatment” value is “up to 72 hours”; the “patients experiencing significant pain relief” value is “About 50%”. Moreover, in data set [2], the “side effect of long-term treatment” value is “cataracts”.

With `C[N+](C)(C)CCOC(N)=O` [carbachol], the “direct effect on interstitial cystitis” value in data set [3] (intravesical) is “decreased”.

With `O=C(O[C@H]1C[C@H]2CC[C@@H](C1)[N+]21CCCC1)C(O)(c1ccccc1)c1ccccc1` [trospium chloride], the “urge, frequency and incontinence episodes” value in data set [4] (1.6 mg per day, eight months, incontinence) was “significant reduction”. For the same compound, the “pain when attempting to urinate” value in data set [4] (2.0 mg per day, six weeks, urgency, frequency, pain) is “no longer experiences pain”. Further, in data set [5] (in vivo), the metabolism entry is “minimally metabolized” and the protein binding entry is reported as “not highly protein-bound”. The plasma half-life result in data set [5] (oral 20 mg tablets) is recorded as “about 20 hrs”. Also, in data set [5] (oral), the “excreted through the feces” value is on record as 85.2%; the “excreted through urine (tubular secretion)” value is 5.8%; the recognized side effects result is “dry mouth, constipation, headache urinary retention and dry eyes”. For the same compound, in data set [6], the “acetic-acid induced bladder overactivity” value is on record as “significantly suppressed” and the “bladder contractions during voiding” value was “without affecting”. For the same compound, the “absorption into the systemic circulation” value in data set [7] was “little or no absorption”. Moreover, in data set [3] (intravesical), the “effect of intravesical trospium after pre treatment of capsaicin or resiniferatoxin” value is recorded as “not blocked” and the “direct effect on interstitial cystitis” value is “no direct effect”. The “effect on the inhibitory effect of carbachol” value in data set [3] (low dose of trospium) is given as “completely blocked”.

Consider pentosan polysulfate sodium, for which, in data set [8] (oral Elmiron), the side effects result was “primarily gastrointestinal discomfort, although some patients experienced hair loss”. Further, in data set [8] (oral, clinical trials, interstitial cystitis), the “patients treated whose symptoms improved” value was 38%.
